# Earlier results in patent publication US10466244B2, “Methods and materials for identifying therapeutic response in chronic myeloid leukemia” (RAJIV GANDHI CENTRE FOR BIOTECHNOLOGY, priority 2013, dated 2019).
# Test system: BCR-ABL
# Conditions: relative to imatinib
smiles,measurement,value
"Cc1cn(-c2cc(NC(=O)c3ccc(C)c(Nc4nccc(-c5cccnc5)n4)c3)cc(C(F)(F)F)c2)cn1 [Nilotinib, nilotinib]",increased potency compared with imatinib against BCR-ABL,20- to 30 fold
